Source: publication PMC6501587 (The Journal of neuroscience : the official journal of the …, 2009)
Substitutions are numbered along the chain they refer to. “Also recorded” adds a separate entry of the source. Read-outs that look alike come from different tables or passages of the source.

Columns and labels:
[1] = biological target: T1, P2X2aR (Rattus norvegicus, UniProt P49653); format: cell-based
T1 sequence (P49653 1-472): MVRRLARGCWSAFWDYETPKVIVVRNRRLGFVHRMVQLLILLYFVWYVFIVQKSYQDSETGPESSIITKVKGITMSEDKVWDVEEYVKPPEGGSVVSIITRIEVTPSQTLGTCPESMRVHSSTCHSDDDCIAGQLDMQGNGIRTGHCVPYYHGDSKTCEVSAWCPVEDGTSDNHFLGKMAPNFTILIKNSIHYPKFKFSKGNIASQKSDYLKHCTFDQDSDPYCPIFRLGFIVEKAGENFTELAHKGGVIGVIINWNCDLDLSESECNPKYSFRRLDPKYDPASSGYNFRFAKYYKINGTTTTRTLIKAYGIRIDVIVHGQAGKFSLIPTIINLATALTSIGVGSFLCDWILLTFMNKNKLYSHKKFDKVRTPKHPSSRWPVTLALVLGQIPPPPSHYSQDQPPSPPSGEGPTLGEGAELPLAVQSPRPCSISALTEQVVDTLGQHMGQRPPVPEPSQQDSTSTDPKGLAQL

[2] = biological target: T2, P2X2a-C430S (Rattus norvegicus, UniProt P49653, C430S); format: cell-based; conditions: HEK293 cells
T2 sequence (P49653 1-472 C430S): T1 sequence (P49653 1-472) with C430S

[3] = test system: P2X4/2a-C430A chimera; conditions: oocytes; supplemental Fig. 3
[4] = biological target: T3, P2X2bR (Rattus norvegicus, UniProt P49653, DEL370-438); format: cell-based; conditions: oocytes
T3 sequence (P49653 with tags, fused parts or gaps DEL370-438): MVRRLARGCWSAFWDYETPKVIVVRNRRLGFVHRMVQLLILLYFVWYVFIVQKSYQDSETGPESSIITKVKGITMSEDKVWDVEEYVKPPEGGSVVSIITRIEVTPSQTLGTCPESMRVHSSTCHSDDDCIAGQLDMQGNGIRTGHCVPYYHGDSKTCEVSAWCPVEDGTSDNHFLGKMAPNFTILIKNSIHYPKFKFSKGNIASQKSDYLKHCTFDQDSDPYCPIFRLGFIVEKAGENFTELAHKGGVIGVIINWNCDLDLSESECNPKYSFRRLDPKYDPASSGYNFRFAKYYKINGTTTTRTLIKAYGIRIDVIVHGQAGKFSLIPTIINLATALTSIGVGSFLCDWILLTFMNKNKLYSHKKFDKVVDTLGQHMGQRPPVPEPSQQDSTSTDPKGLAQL

[5] = biological target: T4, P2X2a-C430A (Rattus norvegicus, UniProt P49653, C430A); format: cell-based; conditions: oocytes
T4 sequence (P49653 1-472 C430A): T1 sequence (P49653 1-472) with C430A

[6] = biological target: T5, P2X4R (Rattus norvegicus, UniProt P51577); format: cell-based; conditions: oocytes
T5 sequence (P51577 1-388): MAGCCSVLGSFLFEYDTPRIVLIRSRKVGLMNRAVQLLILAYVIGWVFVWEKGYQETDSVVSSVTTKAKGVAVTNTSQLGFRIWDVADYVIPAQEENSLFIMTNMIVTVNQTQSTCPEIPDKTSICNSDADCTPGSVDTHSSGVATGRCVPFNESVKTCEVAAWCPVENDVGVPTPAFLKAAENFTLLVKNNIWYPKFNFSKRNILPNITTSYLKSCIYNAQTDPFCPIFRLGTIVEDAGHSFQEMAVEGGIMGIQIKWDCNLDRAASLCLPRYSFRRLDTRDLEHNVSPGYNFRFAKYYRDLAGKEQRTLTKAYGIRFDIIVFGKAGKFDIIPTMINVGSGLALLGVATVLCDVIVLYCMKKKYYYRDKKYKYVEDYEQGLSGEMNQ

[7] = biological target: T1, P2X2aR; test: ATP-evoked currents, whole-cell patch clamp, HEK293 cells expressing P2X2aR; format: cell-based
[8] = biological target: T2, P2X2a-C430S; format: cell-based
[9] = test system: P2X4/2b chimera; format: cell-based, rat; conditions: oocytes
[10] = biological target: T3, P2X2bR; format: cell-based; conditions: HEK293 cells
[11] = test system: P2X4/2a chimera; format: cell-based, rat; conditions: oocytes
[12] = test system: oocytes and HEK293 cells

**Q.** With mercury as the compound, how does the “effect on the ATP-gated current” value ([1]; 10 μM metal pre-applied 1 min and co-applied with 30 μM ATP, oocytes) read?
**A.** potentiated

**Q.** And the “potentiation of ATP-evoked currents” value ([1]; 10 μM metal, 1 min prior and during ATP (~EC15), oocytes)?
**A.** 12.3 ± 2.6 fold

**Q.** What about the “potentiation of response still present after washout” value ([1]; 20 min after washout of 10 μM metal, oocytes) of the same compound?
**A.** 35 ± 12%

**Q.** What about the “reversibility of effect on peak current amplitude” value ([1]; after 10 and 20 min washouts, oocytes) of the same compound?
**A.** not completely reversible

**Q.** What about the “10–90% deactivation time” value ([1]; in the presence of mercury, oocytes) of the same compound?
**A.** 17.2 ± 2.8 s

**Q.** What about the “decrease in the current amplitude on prolonged washout of the metal” value ([1]; mercury-induced potentiation, wild type receptor) of the same compound?
**A.** ~70%

**Q.** What about the “increase of ATP-gated currents” value ([2]; 10 μM metal, ATP ~EC15) of the same compound?
**A.** 1.9 ± 0.2 fold

**Q.** What about the sensitivity to mercury [3] of the same compound?
**A.** insensitivity

**Q.** And the “effect on rate of deactivation” value ([4]; mercury)?
**A.** not significantly affected

**Q.** What about the sensitivity to mercury ([4]; supplemental Fig. 3) of the same compound?
**A.** residual mercury-dependent potentiation

**Q.** What about the “potentiation of ATP-evoked currents” value ([5]; 10 μM mercury, ATP ~EC15) of the same compound?
**A.** 3.3 ± 0.7 fold

**Q.** And the reversibility of effect ([5]; mercury)?
**A.** totally reversible; also recorded: easily reversible

**Q.** What about the sensitivity to mercury ([5]; supplemental Fig. 3) of the same compound?
**A.** residual mercury-dependent potentiation

**Q.** And the “effect on ATP-induced currents” value ([6]; 10 μM metal pre-applied 1 min and co-applied with 10 μM ATP)?
**A.** inhibited

**Q.** And the “washout time to attain control currents” value ([6]; after 10 μM metal)?
**A.** 20 to 30 min

**Q.** What about the “increase of ATP-evoked currents” value ([7]; 10 μM metal, ATP ~EC15) of the same compound?
**A.** 5.9 ± 1.3 fold

**Q.** What about the “potentiation of ATP-evoked currents” value ([8]; 10 μM mercury, ATP ~EC15, oocytes) of the same compound?
**A.** 2.2 ± 0.9 fold

**Q.** What about the reversibility of effect ([8]; mercury) of the same compound?
**A.** easily reversible

**Q.** What about the sensitivity to mercury ([8]; oocytes, supplemental Fig. 3) of the same compound?
**A.** residual mercury-dependent potentiation

**Q.** And the “effect on ATP concentration-response curve” value ([9]; 10 μM mercury)?
**A.** did not displace

**Q.** What about the “effect on receptor deactivation” value ([9]; 10 μM mercury) of the same compound?
**A.** nor modified receptor deactivation

**Q.** And the “effect on receptor deactivation” value ([9]; 10 μM mercury, listed as Mercury)?
**A.** not significantly affected

**Q.** What about the sensitivity to mercury ([9]; 10 μM) of the same compound?
**A.** mercury resistant; also recorded: insensitivity

**Q.** And the “increase of ATP-gated currents” value ([10]; 10 μM metal, ATP ~EC15)?
**A.** 2.5 ± 0.5 fold

**Q.** What about the “effect on maximal ATP response” value ([11]; 10 μM mercury) of the same compound?
**A.** without significantly altering

**Q.** And the “potentiation of 1 μM ATP-induced current” value ([11]; 10 μM metal, 1 μM ATP)?
**A.** 3.7 ± 0.8 fold

**Q.** What about the “10–90% deactivation time” value ([11]; in the presence of mercury) of the same compound?
**A.** 104.7 ± 11.5 s

**Q.** What about the “increase of 10–90% deactivation time” value ([11]; in the presence of mercury) of the same compound?
**A.** 9 fold

**Q.** What about the sensitivity to mercury [11] of the same compound?
**A.** mercury-sensitive; also recorded: residual mercury-dependent potentiation

**Q.** How did the “increase of ATP-gated currents” value ([1]; 0.3 mM H2O2, ATP ~EC15, oocytes) turn out when OO [H2O2, hydrogen peroxide] was run?
**A.** 2.8 ± 0.3 fold

**Q.** And the “sensitivity to H2O2” value ([2]; 1 mM)?
**A.** completely resistant

**Q.** And the “sensitivity to H2O2” value [4]?
**A.** totally resistant

**Q.** And the “sensitivity to H2O2” value [5]?
**A.** totally resistant

**Q.** And the “inhibition of receptor activity” value ([6]; 1 mM H2O2)?
**A.** 43.8 ± 0.1%

**Q.** What about the “increase of ATP-evoked currents” value ([7]; 1 mM H2O2, ATP ~EC15) of the same compound?
**A.** 1.9 ± 0.3 fold

**Q.** What about the “sensitivity to H2O2” value ([8]; oocytes) of the same compound?
**A.** totally resistant

**Q.** And the “sensitivity to H2O2” value [9]?
**A.** totally resistant

**Q.** And the “sensitivity to H2O2” value ([10]; 1 mM)?
**A.** completely resistant

**Q.** What about the “increase of the currents” value ([11]; 1 mM H2O2) of the same compound?
**A.** 1.9 ± 0.2 fold

**Q.** What about the “currents remaining increased after washout” value ([11]; 10 min washout after 1 mM H2O2) of the same compound?
**A.** 0.3 ± 0.1 fold

**Q.** And the “effect of concentrations larger than 1 mM on cells” value [12]?
**A.** cell damage and membrane dissolution
